According to US20230323369A1, “SCREENING MODEL AND METHOD FOR HBV CCCDNA-TARGETING DRUG” (priority 2020, published 2023):
Counter-ions that a name gives are not always drawn.

Experiments:
[1] = test system: HBV cccDNA; experiment: HepaRG-Hibit16 reporter cells, evaluation of HBV inhibitors (Doxycycline induction); type: cell-based, hepatitis B virus; settings: for formation of cccDNA: Doxycycline-induced, cell lysate
Procedure: (§1) Detection of HiBiT: Nano Glo HiBiT Extracellular Detection System (Cat. No. N2421) of Promega Corporation was used for HiBiT detection, and the detection steps were carried out according to the kit instructions.
(§2) Detection of HBV cccDNA: The modified Hirt method was used for HBV cccDNA extraction, with Tiangen Plasmid Mini Kit. The lysis buffers involved were Buffer I (50 mM Tris, 10 mM EDTA, pH 7.5), Buffer II (1.2 % SDS), Buffer III (3 M CsCl, 1 M potassium acetate, 0.67 M acetic acid), which were used to replace P1, P2 and P3 in the Tiangen Plasmid Mini Kit respectively. The extraction steps and methods were performed by referring to the plasmid extraction method of the kit. The instrument used is Roche’s LightCycler® 96. HBV cccDNA and mitochondrial DNA (mtDNA) were quantified respectively, and the relative values of HBV cccDNA and mtDNA were calculated.
HepaRG-Hibit16 cells were obtained by transfecting HepaRG cells with Hibit16 plasmid and PiggyBac transposase, integrating the HBV variant sequence (Hibit16) and selection markers into the genome of the cells, and screened by puromycin resistance and red fluorescent marker; Doxycycline could activate TRE3G promoter to initiate the expression of iRFP670, as well as the transcription and replication of HBV, thereby generating HiBiT, as shown in FIG. 4A. To evaluate the function of HBV inhibitors in the cells, the cells were first plated, and Doxycycline was added to induce viral transcription and replication while different HBV inhibitors were added for intervention. The cell supernatant was collected every 2 days, the medium was replaced, and the HiBiT signal, HBsAg, HBeAg in the cell supernatant, and the HBV DNA and HBV cccDNA in the cell lysate were detected, and the responses of the cells to HBV inhibitors were shown in FIGS. 4B-F. Tenofovir (tenofovir disoproxil fumarate, TDF) is a nucleotide reverse transcriptase inhibitor, and Morphothiadin (abbreviation: Mor) is an assembly regulator of core particles, which are already in the clinical Phase II/III evaluation stage, and both can inhibit the formation of cccDNA.

[2] = test system: HBV cccDNA; experiment: Compound screening in RG-Hibit16 reporter cells (HiBiT in supernatant); type: cell-based, hepatitis B virus; settings: 1 µM, 4 days of compound treatment, among 189 compounds
Procedure: as §1
(§3) The reporter model prepared in Example 1 comprised an HBV variant integrated with 3 repeats of HiBiT sequence. The mRNA transcribed directly from the HBV variant as a template lacked the initiation codon for HiBiT expression, and could not translate the protein attached to the HiBiT tag. Only after the pgRNA transcribed from the HBV variant was reversely transcribed to form cccDNA, the mRNA transcribed from cccDNA as a template could translate the protein attached to the HiBiT tag, so the expression level of HiBiT could be used to indicate the formation of HBV cccDNA. In the reporter model prepared in Example 2, the HiBiT sequence was inserted in the middle of the HBV core sequence, the N-terminus sequence and C-terminus sequence of the core were respectively attached to the C-terminus and N-terminus of the HBV replicon, and loxP sequences were ligated to both ends of the HBV replicon, so that in the absence of Cre recombinase expression, the HiBiT tag lacked a promoter and could not be expressed; but with the expression of Cre recombinase, it could mediate the recombination of double-stranded DNA, so that the linear HBV genome DNA formed a closed circular DNA, and after the circular DNA was formed, the HiBiT tag could use the endogenous promoter of HBV to initiate the expression of the protein attached to the HiBiT tag, so the signal of the HiBiT tag could be used to indicate the formation of recombinant HBV cccDNA, i.e., HBV rcccDNA.

[3] = test system: HBV rcccDNA; experiment: Compound screening in G2-Rccc1a reporter cells (HiBiT in supernatant, Adv-Cre); type: cell-based, hepatitis B virus; settings: 1 µM, 4 days of compound treatment, among 189 compounds
Procedure: as §1, §3

[4] = test system: HBV; experiment: HepG2-hNTCP-2B1 HBV infection model; type: cell-based, hepatitis B virus; settings: for effect on intracellular cccDNA: HepG2-hNTCP-2B1, after 8 days of infection
From the text: Detection of HBsAg/HBeAg: The detection procedures of hepatitis B surface antigen (chemiluminescence method CLEIA, product standard number: YZB/Guo 0346-2014) and e antigen (enzyme-linked immunosorbent assay ELISA, product standard number: YZB/Guo 0216-2013) were both carried out according to the detection methods of the kits of Beijing Wantai Company.
as §2
We further verified the functions of these 6 compounds in the HepG2-hNTCP-2B1 infection model. HepG2-hNTCP-2B1 was the single clone 2B1 selected for the highest susceptibility to HBV which is made by overexpressing hNTCP in HepG2 cells. In the evaluation by this model, the cells were firstly infected with HBV virus, washed with PBS to remove the residual virus on the next day, different compounds were added after 2 days, and then the cell supernatant was collected and fresh medium was replaced every 2 days, the viral antigen in the cell supernatant was detected, the cells were lysed after 8 days of infection, the intracellular HBV cccDNA was detected, and the evaluation results were shown in FIG. 7. […] The functions of these five compounds were verified in the HepG2-hNTCP-2B1 infection model, and the evaluation strategy was the same as that of the aforementioned inhibitor.

[5] = test system: RG-Hibit16 cells; experiment: CCK8 cytotoxicity in RG-Hibit16 cells; settings: 1 µM, 4 days
Procedure: (§4) In this example, the reporter model of Example 1 (HepaRG-Hibit16 integrated with Hibit16 constructed based on HepaRG cells) and the reporter model of Example 2 (HepG2-Rccc1a integrated with Rccc1a constructed based on HepG2) were investigated for screening cccDNA inhibitors. These two cells were used to evaluate the potential of 189 drugs to inhibit cccDNA, including clinical drugs for different diseases or drugs in the clinical research stage. The screening work was carried out in a 96-well cell culture plate, RG-Hibit16 cells were plated at a cell density of 15,000/well, and G2-Rcccla cells were plated at a cell density of 35,000/well. RG-Hibit16 cells were treated with drugs 1 week after plating. For RG-Hibit16, different compounds were added for treatment when Dox was added to induce virus expression; the next day after G2-Rccc1a cells were plated, they were firstly infected with adenovirus Adv-Cre to express Cre recombinase protein, and different compounds were added 2 days later for treatment, and all compounds were diluted to 1 µM at the final concentration, 200 µL per well; new medium was replaced every 2 days, the expression of HiBiT in the cell supernatant was detected after 4 days of compound treatment, and CCK8 detection reagent was added at a ratio of 10:1 to detect the cytotoxicity of the compounds.

[6] = test system: G2-Rccc1a cells; experiment: CCK8 cytotoxicity in G2-Rccc1a cells; settings: 1 µM, 4 days
Procedure: as §4

[7] = HepG2-hNTCP-2B1, cell supernatant

CCOC(=O)C1=C(CN2CCOCC2)NC(c2nccs2)=NC1c1ccc(F)cc1Br (stereo not drawn) [Mor, Morphothiadin]
formation of cccDNA [1]: could inhibit the formation of cccDNA | expression level of HiBiT vs control group ([1]; cell supernatant): significantly lower than that in the control group

CC[C@]1(O)C[C@H]2CN(CCc3c([nH]c4ccccc34)[C@@](C(=O)OC)(c3cc4c(cc3OC)N(C=O)[C@H]3[C@@](O)(C(=O)OC)[C@H](OC(C)=O)[C@]5(CC)C=CCN6CC[C@]43[C@@H]65)C2)C1 [Vincristine]
expression level of HiBiT (surrogate for HBV cccDNA) [2]: up-regulated effects | expression level of HiBiT (surrogate for HBV rcccDNA) [3]: up-regulated effects | effect on intracellular cccDNA [4]: up-regulate | effect on HBeAg [4, 7]: weak promotion effect | expression level of HBsAg [4, 7]: significantly up-regulate

O=C1c2c(O)cccc2Cc2cccc(O)c21 [Dithranol]
cytotoxicity (CCK8) [5]: no obvious cytotoxicity | cytotoxicity (CCK8) [6]: no obvious cytotoxicity

C[C@H]1O[C@@H](n2cc(F)c(=O)[nH]c2=O)[C@H](O)[C@@H]1O [Doxifluridine]
expression level of HiBiT (surrogate for HBV rcccDNA) [3]: most significantly inhibited | cytotoxicity (CCK8) [5]: no obvious cytotoxicity | cytotoxicity (CCK8) [6]: no obvious cytotoxicity | effect on intracellular cccDNA [4]: significant inhibitory effect

N=C(N)NC(=O)Cc1c(Cl)cccc1Cl [Guanfacine]
expression level of HiBiT (surrogate for HBV cccDNA) [2]: most significantly inhibited | cytotoxicity (CCK8) [5]: no obvious cytotoxicity | cytotoxicity (CCK8) [6]: no obvious cytotoxicity

Nc1nc(Cl)nc2c1ncn2[C@H]1C[C@H](O)[C@@H](CO)O1 [Cladribine]
expression level of HiBiT (surrogate for HBV cccDNA) [2]: up-regulated effects | expression level of HiBiT (surrogate for HBV rcccDNA) [3]: up-regulated effects | effect on intracellular cccDNA [4]: up-regulate | effect on HBeAg [4, 7]: weak promotion effect | expression level of HBsAg [4, 7]: significantly up-regulate

CC(C)OC(=O)OCOP(=O)(CO[C@H](C)Cn1cnc2c(N)ncnc21)OCOC(=O)OC(C)C [TDF, tenofovir disoproxil fumarate]
formation of cccDNA [1]: could inhibit the formation of cccDNA

CCCCCCCCCCCCCCCC[n+]1ccccc1 [Cetylpyridinium]
cytotoxicity (CCK8) [5]: no obvious cytotoxicity | cytotoxicity (CCK8) [6]: no obvious cytotoxicity

CN1CCc2c(c3ccccc3n2Cc2ccccc2)C1 [Mebhydrolin]
expression level of HiBiT (surrogate for HBV cccDNA) [2]: up-regulated effects | expression level of HiBiT (surrogate for HBV rcccDNA) [3]: up-regulated effects | effect on intracellular cccDNA [4]: up-regulate | effect on HBeAg [4, 7]: weak promotion effect

COc1ccccc1N1CCN(CC(O)COc2cccc3ccccc23)CC1 (stereo not drawn) [Naftopidil]
expression level of HiBiT (surrogate for HBV cccDNA) [2]: up-regulated effects | expression level of HiBiT (surrogate for HBV rcccDNA) [3]: up-regulated effects | effect on HBeAg [4, 7]: weak promotion effect

C[C@@H](Oc1cc(-c2cnn(C3CCNCC3)c2)cnc1N)c1c(Cl)ccc(F)c1Cl [Crizotinib]
expression level of HiBiT (surrogate for HBV rcccDNA) [3]: most significantly inhibited | cytotoxicity (CCK8) [5]: no obvious cytotoxicity | cytotoxicity (CCK8) [6]: no obvious cytotoxicity

O=C(O)c1cc(-c2ccccc2)nc2ccccc12 [Cinchophen]
expression level of HiBiT (surrogate for HBV cccDNA) [2]: up-regulated effects | expression level of HiBiT (surrogate for HBV rcccDNA) [3]: up-regulated effects | effect on intracellular cccDNA [4]: up-regulate | effect on HBeAg [4, 7]: weak promotion effect

CC1(C)CCC(C)(C)c2cc(Cn3cccn3)c(/C=C/c3ccc(C(=O)O)cc3)cc21 [Palovarotene]
expression level of HiBiT (surrogate for HBV cccDNA) [2]: most significantly inhibited | expression level of HiBiT (surrogate for HBV rcccDNA) [3]: most significantly inhibited | cytotoxicity (CCK8) [5]: no obvious cytotoxicity | cytotoxicity (CCK8) [6]: no obvious cytotoxicity | inhibition rate against HBsAg [4, 7]: more than 60% | inhibitory effect on HBsAg [4, 7]: relatively poor | inhibition rate against HBV cccDNA ([4]; HepG2-hNTCP-2B1, intracellular, after 8 days of infection): more than 60%
